Experiments:
lysozyme (Lys) = target: T1, lysozyme (Lys) (Gallus gallus, UniProt P00698); assay: Far-UV CD secondary structure content of lysozyme (K2D deconvolution); design: species or system chicken; Lys α-helix content / Lys β-sheet content / Lys random coil content / α-helix content / β-sheet content / Random coil content: unit not given here; conditions: 1.0 mg/ml Lys, 25 °C
T1 construct: Lyophilized lysozyme from chicken egg white, ≥90% purity; purchased Millipore (Darmstadt, Germany); host or cells: chicken egg white (natural source)
Procedure: Circular dichroism (CD) spectroscopy is broadly applied to assess the secondary structure of proteins because different structural elements have characteristic CD spectra. […] For [C4C1Im][CF3SO3] (mere fluoro-containing IL), the structural content was estimated for the concentration range (0.1–200 mM). […] FIL and [ N1112(OH) ][H2PO4] […] No substantial protein structural modification upon the ABS phase-forming component addition was verified.
Circular dichroism (CD) spectra were collected in a 10 mm quartz cuvette and a Chirascan spectropolarimeter (Applied Photophysics, Leatherhead, UK) at room temperature. All CD spectra were recorded in far-UV 190 to 260 nm at scan rates of 50 nm/min, 4 accumulations, and a response time of 3 s. Each CD experiment involved the acquisition and combination of two distinct duplicates. […] Spectral deconvolution was carried out with Dichroweb using the K2D algorithm.

FITC-Lys (lysozyme) = target: T2, FITC-Lys (lysozyme) (Gallus gallus, UniProt P00698); assay: Microscale thermophoresis (MST) binding of ABS phase-forming components to FITC-labeled lysozyme; design: species or system chicken; conditions: FITC-Lys 0.41 μM, 25 °C; max. conc. (first capillary) in monomer range: below 1st CAC for FILs, ]0, 100] mM for non-aggregating ligands
T2 construct: Lyophilized lysozyme from chicken egg white, ≥90% purity; purchased Millipore (Darmstadt, Germany); host or cells: chicken egg white (natural source)
Procedure: Usually, in the labeling process, the position of dye is statistically distributed, and one amine per protein is labeled. […] The four ABS phase-forming components, [ N1112(OH) ][H2PO4] […] (FILs), and [C4C1Im][CF3SO3] […] In each run of MST, a maximum concentration of ligand was selected and consecutively diluted in sixteen capillaries.
Binding studies were conducted through microscale thermophoresis measurements of dye-labeled lysozyme. […] MST tests were conducted in a monolith NT.115 (blue/red) in accordance with the Nano Temper Technologies methodology. Medium MST power and 20% LED power (nano-blue) were set as the instrument’s default settings. For each and every MST measurement, PBS buffer was used. […] For each ligand, a series of 16 1:1 dilutions was prepared using the same buffer, varying the starting ligand concentration from 15 to 400 mM. MST traces were recorded using the standard parameters: 5 s MST power off, 30 s MST power on, and 5 s MST power off. Three independently conducted pipetted experiments’ data were examined using NanoTemper Technologies’ MO. Affinity Analysis program, version 2.3.

T1 sequence (P00698 19-147): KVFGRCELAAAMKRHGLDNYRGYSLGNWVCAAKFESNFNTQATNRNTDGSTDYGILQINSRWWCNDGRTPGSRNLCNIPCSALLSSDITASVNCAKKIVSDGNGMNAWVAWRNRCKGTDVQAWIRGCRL
T2 sequence (P00698 19-147): as above

CCCCn1cc[n+](C)c1.O=S(=O)([O-])C(F)(F)F [[C4C1Im][CF3SO3]]
0.15: Lys β-sheet content (lysozyme (Lys); 0.1 mM component) | Lys β-sheet content (lysozyme (Lys); 1 mM component) | Lys β-sheet content (lysozyme (Lys); 5 mM component) | Lys β-sheet content (lysozyme (Lys); 25 mM component) | Lys β-sheet content (lysozyme (Lys); 55 mM component) | Lys β-sheet content (lysozyme (Lys); 90 mM component) | Lys β-sheet content (lysozyme (Lys); 120 mM component)
0.56: Lys random coil content (lysozyme (Lys); 0.1 mM component) | Lys random coil content (lysozyme (Lys); 90 mM component) | Lys random coil content (lysozyme (Lys); 120 mM component)
0.57: Lys random coil content (lysozyme (Lys); 1 mM component) | Lys random coil content (lysozyme (Lys); 5 mM component) | Lys random coil content (lysozyme (Lys); 25 mM component) | Lys random coil content (lysozyme (Lys); 55 mM component)
0.29: Lys α-helix content (lysozyme (Lys); 200 mM component)
0.16: Lys β-sheet content (lysozyme (Lys); 200 mM component)
no binding detected: Kd (FITC-Lys (lysozyme))
0.28: Lys α-helix content (lysozyme (Lys); 0.1 mM component) | Lys α-helix content (lysozyme (Lys); 1 mM component) | Lys α-helix content (lysozyme (Lys); 5 mM component) | Lys α-helix content (lysozyme (Lys); 25 mM component) | Lys α-helix content (lysozyme (Lys); 55 mM component) | Lys α-helix content (lysozyme (Lys); 90 mM component) | Lys α-helix content (lysozyme (Lys); 120 mM component)
0.55: Lys random coil content (lysozyme (Lys); 200 mM component)

Reference: article PMC11172314, “Towards Enhanced Tunability of Aqueous Biphasic Systems: Furthering the Grasp of Fluorinated Ionic Liquids in the Purification of Proteins” (International Journal of Molecular Sciences, 2024)
